Assay results published in patent publication US20240148709A1, “METHODS OF TREATING EYE PAIN AND EYE DISORDERS” (Aisa Pharma, Inc., priority 2022, published 2024).
Several values for one entry are separate records, joined by “and”; a condition that tells them apart may be missing. Identical values can stand only once.

Tested on: participants with SSc-RP
Assay: Scleroderma Health Assessment Questionnaire (SHAQ), Phase 2a study Part A
Type: in vivo, human
Experimental: Part A—double-blind, placebo-controlled, parallel-group, dose selection, will assess the safety and efficacy of two doses of cilnidipine (10 mg and 20 mg), alone and in combination with tadalafil. A total of 36 participants will be randomized to one of six prespecified treatment arms. Refer to FIG. 1 for treatment arms in Part A of the study. Dosing last for 12 (±2) days in which participants will self-administer daily doses of assigned treatment in the morning. Each participant will take one capsule and one tablet to blind the active therapy being received.
The standard, validated, patient reported outcome measures tool for SSc patients, the SHAQ, will be collected at the time points specified in the study schedules (FIG. 2 and FIGS. 3A and 3B) to assess the participant's quality of life. The SHAQ includes a Raynaud's VAS that will also be reported separately.
Results: Patients in the study were administered the Scleroderma Health Assessment Questionnaire (SHAQ) at the time of study entry and during clinic visits following the treatment period. The study is a two-part, parallel arm design, prospective, double-blind, randomized study conducted in Australia (Flinders Medical Center). 27 patients were randomized into the first phase of the study, following which a DSMB meeting was held, which reviewed data on the primary study endpoint and key Raynaud's secondary endpoints. Data on the SHAQ was not available for the DSMB to review. The mITT population, in which any data was available post treatment was 24 patients was the analysis population for this first part of the study. The second part (i.e., part B) of the study will randomize 36 patients in a double blind, randomized, prospective, placebo controlled, crossover study. In the first part (i.e., Part A) of the study for which data is presented, patients were randomized into 6 groups, cilnidipine at two doses (10 and 20 mg) alone and in combination with tadalafil 5 mg, tadalafil 5 mg alone, and placebo. […] The DSMB recommended that the study proceed into its double blind prospective cross overpowered second phase and compare cilnidipine 20 mg alone to placebo.

[1] = cilnidipine 20 mg arms (alone or + tadalafil 5 mg)

## COCCOC(=O)C1=C(C)NC(C)=C(C(=O)OC/C=C/c2ccccc2)C1c1cccc([N+](=O)[O-])c1 (stereo not shown) [Cilnidipine, cilnidipine]
[1]
  SHAQ Visual Analog Scale-Breathing Problems, Change from Baseline, Q3: 0.300
  SHAQ Visual Analog Scale-Breathing Problems, In Clinic Visit (Day 12), Max: 0.50
  SHAQ Visual Analog Scale-Breathing Problems, In Clinic Visit (Day 12), Mean (SD): 0.300 (0.2646)
  SHAQ Visual Analog Scale-Breathing Problems, In Clinic Visit (Day 12), Median: 0.400
  SHAQ Visual Analog Scale-Breathing Problems, In Clinic Visit (Day 12), Min: 0.00
  SHAQ Visual Analog Scale-Breathing Problems, In Clinic Visit (Day 12), Q1: 0.000
  SHAQ Visual Analog Scale-Breathing Problems, In Clinic Visit (Day 12), Q3: 0.500
  SHAQ Visual Analog Scale-Breathing Problems, Percent Change from Baseline, Max: 150.0%
  SHAQ Visual Analog Scale-Breathing Problems, Percent Change from Baseline, Mean (SD): −5.56 (135.742) %
  SHAQ Visual Analog Scale-Breathing Problems, Percent Change from Baseline, Median: −66.67%
  SHAQ Visual Analog Scale-Breathing Problems, Percent Change from Baseline, Min: −100.0%
  SHAQ Visual Analog Scale-Breathing Problems, Percent Change from Baseline, Q1: −100.00%
  SHAQ Visual Analog Scale-Breathing Problems, Percent Change from Baseline, Q3: 150.00%
  SHAQ Visual Analog Scale-Intestinal Problems, Change from Baseline, Max: 0.60
  SHAQ Visual Analog Scale-Intestinal Problems, Change from Baseline, Mean (SD): 0.300 (0.3000)
  SHAQ Visual Analog Scale-Intestinal Problems, Change from Baseline, Median: 0.300
  SHAQ Visual Analog Scale-Intestinal Problems, Change from Baseline, Min: 0.00
  SHAQ Visual Analog Scale-Intestinal Problems, Change from Baseline, Q1: 0.000
  SHAQ Visual Analog Scale-Intestinal Problems, Change from Baseline, Q3: 0.600
  SHAQ Visual Analog Scale-Intestinal Problems, In Clinic Visit (Day 12), Max: 2.10
  SHAQ Visual Analog Scale-Intestinal Problems, In Clinic Visit (Day 12), Mean (SD): 1.133 (1.0599)
  SHAQ Visual Analog Scale-Intestinal Problems, In Clinic Visit (Day 12), Median: 1.300
  SHAQ Visual Analog Scale-Intestinal Problems, In Clinic Visit (Day 12), Min: 0.00
  SHAQ Visual Analog Scale-Intestinal Problems, In Clinic Visit (Day 12), Q1: 0.000
  SHAQ Visual Analog Scale-Intestinal Problems, In Clinic Visit (Day 12), Q3: 2.100
  SHAQ Visual Analog Scale-Intestinal Problems, Percent Change from Baseline, Max: 40.0%
  SHAQ Visual Analog Scale-Intestinal Problems, Percent Change from Baseline, Mean (SD): 35.00 (7.071) %
  SHAQ Visual Analog Scale-Intestinal Problems, Percent Change from Baseline, Median: 35.00%
  SHAQ Visual Analog Scale-Intestinal Problems, Percent Change from Baseline, Min: 30.0%
  SHAQ Visual Analog Scale-Intestinal Problems, Percent Change from Baseline, Q1: 30.00%
  SHAQ Visual Analog Scale-Intestinal Problems, Percent Change from Baseline, Q3: 40.00%
  SHAQ Visual Analog Scale-Pain, Change from Baseline, Max: −0.50
  SHAQ Visual Analog Scale-Pain, Change from Baseline, Mean (SD): −1.100 (0.7937) and −1.1 (0.79)
  SHAQ Visual Analog Scale-Pain, Change from Baseline, Median: −0.800
  SHAQ Visual Analog Scale-Pain, Change from Baseline, Min: −2.00
  SHAQ Visual Analog Scale-Pain, Change from Baseline, Q1: −2.000
  SHAQ Visual Analog Scale-Pain, Change from Baseline, Q3: −0.500
  SHAQ Visual Analog Scale-Pain, In Clinic Visit (Day 12), Max: 2.10
  SHAQ Visual Analog Scale-Pain, In Clinic Visit (Day 12), Mean (SD): 1.067 (0.9074)
  SHAQ Visual Analog Scale-Pain, In Clinic Visit (Day 12), Median: 0.700
  SHAQ Visual Analog Scale-Pain, In Clinic Visit (Day 12), Min: 0.40
  SHAQ Visual Analog Scale-Pain, In Clinic Visit (Day 12), Q1: 0.400
  SHAQ Visual Analog Scale-Pain, In Clinic Visit (Day 12), Q3: 2.100
  SHAQ Visual Analog Scale-Pain, Percent Change from Baseline, Max: −48.8%
  SHAQ Visual Analog Scale-Pain, Percent Change from Baseline, Mean (SD): −52.56 (3.454) %
  SHAQ Visual Analog Scale-Pain, Percent Change from Baseline, Median: −53.33%
  SHAQ Visual Analog Scale-Pain, Percent Change from Baseline, Min: −55.6%
  SHAQ Visual Analog Scale-Pain, Percent Change from Baseline, Q1: −55.56%
  SHAQ Visual Analog Scale-Pain, Percent Change from Baseline, Q3: −48.78%
  SHAQ Visual Analog Scale-Raynaud's, Change from Baseline, Max: −0.30
  SHAQ Visual Analog Scale-Raynaud's, Change from Baseline, Median: −1.100
  SHAQ Visual Analog Scale-Raynaud's, Change from Baseline, Min: −2.40
  SHAQ Visual Analog Scale-Raynaud's, Change from Baseline, Q1: −2.400
  SHAQ Visual Analog Scale-Raynaud's, Change from Baseline, Q3: −0.300
  SHAQ Visual Analog Scale-Raynaud's, In Clinic Visit (Day 12), Max: 1.40
  SHAQ Visual Analog Scale-Raynaud's, In Clinic Visit (Day 12), Mean (SD): 1.033 (0.4041)
  SHAQ Visual Analog Scale-Raynaud's, In Clinic Visit (Day 12), Median: 1.100
  SHAQ Visual Analog Scale-Raynaud's, In Clinic Visit (Day 12), Min: 0.60
  SHAQ Visual Analog Scale-Raynaud's, In Clinic Visit (Day 12), Q1: 0.600
  SHAQ Visual Analog Scale-Raynaud's, In Clinic Visit (Day 12), Q3: 1.400
  SHAQ Visual Analog Scale-Raynaud's, Percent Change from Baseline, Max: −33.3%
  SHAQ Visual Analog Scale-Raynaud's, Percent Change from Baseline, Mean (SD): −48.63 (18.070) %
  SHAQ Visual Analog Scale-Raynaud's, Percent Change from Baseline, Median: −44.00%
  SHAQ Visual Analog Scale-Raynaud's, Percent Change from Baseline, Min: −68.6%
  SHAQ Visual Analog Scale-Raynaud's, Percent Change from Baseline, Q1: −68.57%
  SHAQ Visual Analog Scale-Raynaud's, Percent Change from Baseline, Q3: −33.33%
  SHAQ alternative disability index, Change from Baseline, Max: 0.00
  SHAQ alternative disability index, Change from Baseline, Mean (SD): −0.083 (0.0722)
  SHAQ alternative disability index, Change from Baseline, Median: −0.125
  SHAQ alternative disability index, Change from Baseline, Min: −0.13
  SHAQ alternative disability index, Change from Baseline, Q1: −0.125
  SHAQ alternative disability index, Change from Baseline, Q3: 0.000
  SHAQ alternative disability index, In Clinic Visit (Day 12), Max: 0.25
  SHAQ alternative disability index, In Clinic Visit (Day 12), Mean (SD): 0.125 (0.1250)
  SHAQ alternative disability index, In Clinic Visit (Day 12), Median: 0.125
  SHAQ alternative disability index, In Clinic Visit (Day 12), Min: 0.00
  SHAQ alternative disability index, In Clinic Visit (Day 12), Q1: 0.000
  SHAQ alternative disability index, In Clinic Visit (Day 12), Q3: 0.250
  SHAQ alternative disability index, Percent Change from Baseline, Max: −33.3%
  SHAQ alternative disability index, Percent Change from Baseline, Mean (SD): −41.67 (11.785) %
  SHAQ alternative disability index, Percent Change from Baseline, Median: −41.67%
  SHAQ alternative disability index, Percent Change from Baseline, Min: −50.0%
  SHAQ alternative disability index, Percent Change from Baseline, Q1: −50.00%
  SHAQ alternative disability index, Percent Change from Baseline, Q3: −33.33%
Pooled cilnidipine 10 mg or 20 mg (n=7)
  mean decrease in patient reported disease severity on the SHAQ: 60%
